Data set [1] relates to Phospho-ERK levels in KYSE-520 cells. The data set is described as follows: ERK Phosphorylation (Phospho-ERK) Target Engagement Assay (HTRF). The conditions noted are these: Homo sapiens, 2 hr compound incubation, phospho-ERK1/2 HTRF kit, read-out: pERK target engagement assay Avg IC50. Type of data set: cell-based. The protocol: KYSE-520 cells (10 k cells/well) are plated onto 384-well plate in 20 uL of medium (RPMI-1640, without phenol red, containing 10% FBS) and incubated at 37° C., 5% CO2 16 h. DMSO (control) or increasing concentrations of compounds are diluted in medium, added to the 384-well plate (10 uL/well, final DMSO concentration of 0.5-1%), and cells are then incubated with compounds for 2 hr. Phospho-ERK levels are measured using a TR-FRET based phospho-ERK1/2 HTRF kit (CisBio, 64ERKPEH) following manufacturer's recommendations, and fluorescence signal was measured at 665 nm and 620 nm using Synergy Neo plate reader. Dose-response curves were analyzed using IC50 regression curve fitting (GeneData Screener). Curves were normalized to a high controls without inhibitor, and low controls with 1 μM of selumetinib.

The target in data set [2] is PTPN11-E76K mutant enzyme (Homo sapiens (Human), UniProt Q06124, E76K). Briefly: PTPN11 Enzymatic Assay (DiFMUP phosphatase activity). Format: biochemical. The conditions noted are these: full length PTPN11-E76K mutant enzyme 250 pM, DiFMUP 50 μM, 30 min preincubation; read-out: PTPN11-E76K Avg IC50. The protocol:
Reaction was initiated by addition of DiFMUP (50 μM) at room temperature in 384-well black plate with a final reaction volume of 20 uL in assay buffer. […] Dose-response curves were analyzed using IC50 regression curve fitting (GeneData Screener). Curves were normalized to a high controls without inhibitor, and low controls without enzyme.

Data set [3] has as its system BT474 human breast carcinomas cell line. Briefly: In Vivo Tumor Models: BT474 xenograft. The conditions noted are these: BT474 (HER2+) xenograft in mouse, 100 mg/kg once per day oral gavage, 5 days on/2 days off, 4 weeks. An excerpt: Xenografts were initiated with BT474 human breast carcinomas cell line and maintained by serial subcutaneous transplantation in CB-17/SCID mice (Charles River). On the day of tumor implant, each test mouse received a 1 mm^3 BT474 fragment implanted subcutaneously in the right flank, and tumor growth was monitored as the average size approached the target range of 100 to 150 mm3. About three weeks post-implantation, the animals were randomized and grouped based on tumor volume and mouse body weight. […] Tumors were measured in two dimensions using calipers, and volume was calculated using the formula: Tumor Volume (mm^3)=[…].
Results are found in FIGS. 1 and 2.

For data set [4], the system named is Phospho-ERK levels in KYSE-520 cells. Briefly: pERK AlphaScreen Protocol. Type of data set: cell-based. The conditions noted are these: Homo sapiens, KYSE-520, 2 h, KYSE-520 cells, 2 hr compound incubation, phospho-ERK1/2 AlphaScreen SureFire; read-out: PERK Avg IC50. In outline:
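After overnight growth at 10 k cells/well in RPMI-1640 with 10% FBS, KYSE-520 cells received compound dilutions for 2 h at 1% final DMSO.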
For orientation: Alpha assays give light when donor and acceptor beads are brought close together.

Chain of PTPN11-E76K mutant enzyme (Q06124 whole entry E76K): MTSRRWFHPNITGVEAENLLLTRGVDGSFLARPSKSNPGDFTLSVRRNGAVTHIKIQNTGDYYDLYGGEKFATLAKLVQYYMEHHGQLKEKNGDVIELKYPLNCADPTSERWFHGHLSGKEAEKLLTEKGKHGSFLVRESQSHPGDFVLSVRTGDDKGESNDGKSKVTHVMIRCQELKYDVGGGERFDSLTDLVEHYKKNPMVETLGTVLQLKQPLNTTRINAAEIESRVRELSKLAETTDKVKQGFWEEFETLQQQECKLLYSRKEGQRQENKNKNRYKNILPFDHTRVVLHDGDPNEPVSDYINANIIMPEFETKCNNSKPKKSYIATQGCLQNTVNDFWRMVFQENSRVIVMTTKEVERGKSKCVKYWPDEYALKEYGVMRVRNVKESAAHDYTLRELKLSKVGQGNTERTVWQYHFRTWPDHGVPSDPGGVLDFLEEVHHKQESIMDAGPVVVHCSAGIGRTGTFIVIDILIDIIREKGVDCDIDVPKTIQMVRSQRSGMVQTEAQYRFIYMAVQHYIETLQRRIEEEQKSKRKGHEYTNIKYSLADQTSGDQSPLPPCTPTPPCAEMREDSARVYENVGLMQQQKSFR

In general, IC50 refers to the midpoint of a concentration-inhibition curve. As to `N[C@@H]1[C@H]2CN(c3cnc4c(-c5cccc(Cl)c5Cl)n[nH]c4n3)C[C@@H]12` [Example 3, (1R,5S,6S)-3-(3-(2,3-dichlorophenyl)-1H-pyrazolo[3,4-b]-pyrazin-6-yl)-3-aza-bicyclo[3.1.0]hexan-6-amine], the IC50 amounted to 322 nM in data set [1] and 1070 nM in data set [2].

As to `Clc1cccc(-c2n[nH]c3nc(N4CCC5(CCNC5)CC4)cnc23)c1Cl` [Example 2, 8-(3-(2,3-dichloro-phenyl)-1H-pyrazolo[3,4-b]-pyrazin-6-yl)-2,8-diazaspiro-[4.5]decane], the IC50 in data set [1] came to 169 nM; in data set [2], 787 nM.

Regarding `CC1(N)CCN(c2cnc3c(-c4cccc(Cl)c4Cl)n[nH]c3n2)CC1` [Example 1, 1-(3-(2,3-dichlorophenyl)-1H-pyrazolo[3,4-b]pyrazin-6-yl)-4-methylpiperidin-4-amine], in data set [1], the IC50 turned out to be 49 nM. In addition, in data set [3], the “suppression of tumor growth” value is “significant suppression of tumor growth” and the tolerability of dose entry was “tolerated”.

Regarding `CC1(CN)CCN(c2cnc3c(-c4cccc(Cl)c4Cl)n[nH]c3n2)CC1` [Example 4, (1-(3-(2,3-dichloro-phenyl)-1H-pyrazolo[3,4-b]-pyrazin-6-yl)-4-methylpiperidin-4-yl)methanamine], in data set [1], the IC50 is 73 nM.

On to `COc1cccc(-c2n[nH]c3nc(N4CCC(C)(CN)CC4)cnc23)c1Cl` [Example 27, (1-(3-(2-chloro-3-methoxy phenyl)-1H-pyrazolo[3,4-b]pyrazin-6-yl)-4-methylpiperidin-4-yl) methanamine], for which the IC50 in data set [4] worked out at 55 nM; in data set [2] it was 80 nM.

In the case of `CNC1(C)CCN(c2cnc3c(-c4cccc(Cl)c4Cl)n[nH]c3n2)CC1` [Example 6, 1-(3-(2,3-Dichlorophenyl)-1H-pyrazolo[3,4-b]-pyrazin-6-yl)-N,4-dimethylpiperidin-4-amine], the IC50 in data set [1] is 124 nM; in data set [2] it was 2 nM.

For `N[C@@H]1CCCC12CCN(c1cnc3c(-c4cccc(C(F)(F)F)c4)n[nH]c3n1)CC2` [Example 48, (R)-8-(3-(3-(trifluoromethyl)-phenyl)-1H-pyrazolo[3,4-b]pyrazin-6-yl)-8-azaspiro[4.5]decan-1-amine], the IC50 in data set [4] came out at 586 nM; in data set [2], 1760 nM.

As for `CC1(N)CCN(c2cnc3c(-c4cccnc4Cl)n[nH]c3n2)CC1` [Example 23, 1-(3-(2-chloro-pyridin-3-yl)-1H-pyrazolo[3,4-b]-pyrazin-6-yl)-4-methyl-piperidin-4-amine], the figures for the IC50 in data set [4] and in data set [2] were 428 nM and 1820 nM, respectively.

As for `Nc1nccc(-c2n[nH]c3nc(N4CCC5(CCC[C@H]5N)CC4)cnc23)c1Cl` [Example 130, (1R)-8-[3-(2-amino-3-chloropyridin-4-yl)-1H-pyrazolo[3,4-b]pyrazin-6-yl]-8-azaspiro[4.5]decan-1-amine], the half-inhibitory concentration (IC50) in data set [4] is 65 nM; in data set [2], 83 nM.

On to `Nc1cc(-c2n[nH]c3nc(N4CCC5(CCC[C@H]5N)CC4)cnc23)c(Cl)cn1` [Example 125, (R)-8-(3-(2-amino-5-chloropyridin-4-yl)-1H-pyrazolo[3,4-b]pyrazin-6-yl)-8-azaspiro[4.5]decan-1-amine], for which the IC50 was 429 nM in data set [4] and 509 nM in data set [2].

For `NC1(CO)CCN(c2cnc3c(-c4c(F)cccc4Cl)n[nH]c3n2)CC1` [Example 121, (4-Amino-1-(3-(2-chloro-6-fluorophenyl)-1H-pyrazolo[3,4-b]pyrazin-6-yl)-piperidin-4-yl)methanol], the IC50 in data set [4] was 1650 nM; in data set [2], 1080 nM.

In the case of `CC1(CN)CCN(c2cnc3c(-c4ccnc(N)c4Cl)n[nH]c3n2)CC1` [Example 107, 4-(6-(4-(Aminomethyl)-4-methylpiperidin-1-yl)-1H-pyrazolo[3,4-b]pyrazin-3-yl)-3-chloropyridin-2-amine], the figures for the half-maximal inhibitory concentration (IC50) in data set [4] and in data set [2] were 246 nM and 162 nM, respectively.

`Nc1nccc(-c2n[nH]c3nc(N4CCC(N)(CO)CC4)cnc23)c1Cl` [Example 119, (4-Amino-1-(3-(2-amino-3-chloropyridin-4-yl)-1H-pyrazolo[3,4-b]pyrazin-6-yl)-piperidin-4-yl)methanol]: the IC50 in data set [4] is 1730 nM; in data set [2], 422 nM.

With `CC1(N)CCN(c2cnc3c(-c4cc(Cl)cc(Cl)c4)n[nH]c3n2)CC1` [Example 12, 1-(3-(3,5-dichloro-phenyl)-1H-pyrazolo[3,4-b]-pyrazin-6-yl)-4-methylpiperidin-4-amine], the IC50 in data set [4] is 623 nM; in data set [2], 404 nM.
